{"source": "patent US5326774A", "about": "“Pharmaceutical preparation of antihypertensive, antianginal, antiarrhythmic and antiglaucomic action” (priority 1992, dated 1994)", "key": {"ventricular fibrillation": {"test_system": "ventricular fibrillation", "test": "Ventricular fibrillation during acute coronary occlusion and reperfusion in anesthetized dogs", "format": "in vivo, dog", "settings": "single animals, hydrochloride"}, "[1]": {"test_system": "intraocular tension of intact rabbit eyes", "settings": "for Average decrease of intraocular tension OD, M ± m / Intraocular tension level OD, M ± m: 1% solution"}, "heart rate": {"test_system": "heart rate", "test": "Heart rate in anesthetized rats, i.v.", "format": "in vivo, rat", "settings": "for heart rate: control 271±7", "protocol": "β-adrenoceptor blocking activity of the active principle of the pharmaceutical preparation of the invention was studied. […]. The test substances were injected to several groups of animals (6-10 individuals each) in the graded doses of 0.001, 0.0025, 0.01, 0.025, and 0.1 mg/kg.\nFrom the dosage of […] it gave rise to the lowering of arterial pressure (from 159±9 in the control to 141±11, 127±10 and 123 ±11 mm Hg in the dosages of 0.01, 0.025 and 0.1 mg/kg). From the dosage of 0.0025 mg/kg the compound of the invention gave rise to the dose-related suppression of the isadrin-initiated depressor effect (by 12,63, 82 and 90% in doses of 0.0025, 0.01, 0.025 and 0.1 mg/kg) and, starting from the dosage of […], a positive chronotropic (by 25, 46 and 78% in doses of 0.01, 0.025 said 0.1 mg/kg, respectively) effect."}, "[2]": {"test": "Solubility of the active principle", "format": "physicochemical"}, "β2-adrenoceptor [3]": {"target": "T1, β2-adrenoceptor (Rattus norvegicus, UniProt P10608)", "T1 construct": "positive chronotropic and depressor effects in the anesthetized rats; from tissue; host or cells: whole living rat (blood pressure response to isadrin); endogenous receptor", "T1 sequence (P10608 whole entry)": "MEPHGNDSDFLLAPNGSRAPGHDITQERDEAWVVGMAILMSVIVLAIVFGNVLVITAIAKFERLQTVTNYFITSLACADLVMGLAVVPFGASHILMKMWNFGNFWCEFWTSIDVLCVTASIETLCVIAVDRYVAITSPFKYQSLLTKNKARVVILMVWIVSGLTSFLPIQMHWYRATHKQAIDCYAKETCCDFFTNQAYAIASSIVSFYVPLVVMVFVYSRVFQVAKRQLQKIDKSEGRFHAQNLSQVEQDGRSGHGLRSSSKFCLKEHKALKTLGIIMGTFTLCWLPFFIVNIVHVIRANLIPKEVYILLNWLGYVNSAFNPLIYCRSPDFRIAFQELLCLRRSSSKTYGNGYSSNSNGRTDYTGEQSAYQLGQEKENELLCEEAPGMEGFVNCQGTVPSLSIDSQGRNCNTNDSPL", "test": "Inhibition of isadrin's depressor effect, i.v., anesthetized rats", "format": "in vivo"}, "β-adrenoceptor": {"test_system": "β-adrenoceptor", "test": "Specificity of β-adrenoceptor blocking effect: positive inotropism", "from_the_text": "Thus, the compound of the invention relates to specific β-adrenoceptor blocking agents."}, "β2-adrenoceptor [4]": {"test_system": "β2-adrenoceptor", "test": "Isadrin's depressor effect, i.v., anesthetized cats", "format": "in vivo, cat", "from_the_text": "The influence of intravenous injection of the compound according to the invention as compared with the known drugs on […] positive chronotropic and depressor effects in the anesthetized cats was studied."}, "experimental animals": {"test_system": "experimental animals", "test": "Chronic toxicity, intragastric", "format": "in vivo"}}, "note": "Like-named read-outs stand apart in the source and are kept apart here."}
{"smiles": "Cc1noc(COc2ccccc2OCC(O)CNC(C)(C)C)n1.Cl", "note": "(stereo not shown) [Compound of the invention, 3-methyl-5-[2-(3-tert.butylamino-2-hydroxypropoxy)phenoxymethyl]-1,2,4-oxadiazole hydrochloride]", "values": [{"measurement": "Ventricular fibrillation during acute occlusion and reperfusion", "setting": "ventricular fibrillation; 10 min after injection", "value": "R"}, {"measurement": "Ventricular fibrillation during acute occlusion and reperfusion", "setting": "ventricular fibrillation; 60 min after injection", "value": "R"}, {"measurement": "tolerability for rabbit eyes", "setting": "[1]; 0.5, 1 and 2% solutions", "value": "well-tolerable"}, {"measurement": "Average decrease of intraocular tension OD, M ± m", "setting": "[1]; 1 hour", "value": "1.9 ± 0.3 ram of Hg column"}, {"measurement": "Intraocular tension level OD, M ± m", "setting": "[1]; 1 hour", "value": "17.1 ± 0.3 ram of Hg column"}, {"measurement": "Average decrease of intraocular tension OD, M ± m", "setting": "[1]; 2 hours", "value": "2.6 ± 0.2 ram of Hg column"}, {"measurement": "Intraocular tension level OD, M ± m", "setting": "[1]; 2 hours", "value": "16.5 ± 0.4 ram of Hg column"}, {"measurement": "Average decrease of intraocular tension OD, M ± m", "setting": "[1]; 3 hours", "value": "2.3 ± 0.3 ram of Hg column"}, {"measurement": "Intraocular tension level OD, M ± m", "setting": "[1]; 3 hours", "value": "17.1 ± 0.4 ram of Hg column"}, {"measurement": "Average decrease of intraocular tension OD, M ± m", "setting": "[1]; 4 hours", "value": "2.3 ± 0.3 ram of Hg column"}, {"measurement": "Intraocular tension level OD, M ± m", "setting": "[1]; 4 hours", "value": "17.1 ± 0.2 ram of Hg column"}, {"measurement": "Average decrease of intraocular tension OD, M ± m", "setting": "[1]; 5 hours", "value": "1.5 ± 0.5 ram of Hg column"}, {"measurement": "Intraocular tension level OD, M ± m", "setting": "[1]; 5 hours", "value": "17.6 ± 0.4 ram of Hg column"}, {"measurement": "Average decrease of intraocular tension OD, M ± m", "setting": "[1]; 6 hours", "value": "1.2 ± 0.4 ram of Hg column"}, {"measurement": "Intraocular tension level OD, M ± m", "setting": "[1]; 6 hours", "value": "17.8 ± 0.4 ram of Hg column"}, {"measurement": "Average decrease of intraocular tension OD, M ± m", "setting": "[1]; 24 hours", "value": "0.8 ± 0.5 ram of Hg column"}, {"measurement": "Intraocular tension level OD, M ± m", "setting": "[1]; 24 hours", "value": "18.2 ± 0.7 ram of Hg column"}, {"measurement": "mechanism of lowering of intraocular tension", "setting": "[1]; intact rabbit eyes", "value": "decrease in secretion of surface water (watery moisture)"}, {"measurement": "duration of lowering of intraocular tension", "setting": "[1]; intact rabbit eyes, 0.5, 1 and 2% solutions", "value": "6 to 8", "unit": "h"}, {"measurement": "irritating effect", "setting": "[1]; rabbit, in vivo", "value": "no irritating effect"}, {"measurement": "pupil value", "setting": "[1]; rabbit, in vivo", "value": "do not change considerably the pupil value"}, {"measurement": "heart rate", "setting": "heart rate; 0.0025 mg/kg i.v.", "value": "249±11", "unit": "beat/min."}, {"measurement": "heart rate", "setting": "heart rate; 0.01 mg/kg i.v.", "value": "238±16", "unit": "beat/min."}, {"measurement": "heart rate", "setting": "heart rate; 0.025 mg/kg i.v.", "value": "204±14", "unit": "beat/min."}, {"measurement": "heart rate", "setting": "heart rate; 0.1 mg/kg i.v.", "value": "181±14", "unit": "beat/min."}, {"measurement": "minimal effective dose", "setting": "heart rate; Rattus norvegicus, iv, read-out: dosage from which heart rate decreased", "value": 2.5, "unit": "µg/kg"}, {"measurement": "lower toxicity compared with propranolol, oxprenolol and pindolol", "setting": "albino mice; i.v.", "value": "2-4 times"}, {"measurement": "lower toxicity than propranolol and oxprenolol", "setting": "albino mice; oral", "value": "2-3 times"}, {"measurement": "solubility in ethyl ether", "setting": "[2]", "value": "substantially insoluble"}, {"measurement": "solubility in water, chloroform, ethanol", "setting": "[2]", "value": "readily soluble"}, {"measurement": "suppression of the isadrin-initiated depressor effect", "setting": "β2-adrenoceptor [3]; 0.025 mg/kg i.v.", "value": 82, "unit": "%"}, {"measurement": "suppression of the isadrin-initiated depressor effect", "setting": "β2-adrenoceptor [3]; 0.1 mg/kg i.v.", "value": 90, "unit": "%"}, {"measurement": "β2-adrenoceptor blocking activity, times as high as labetalol", "setting": "β2-adrenoceptor [3]; comparison of ED50, rats i.v.", "value": 412, "unit": "times"}, {"measurement": "β2-adrenoceptor blocking activity, times as high as oxprenolol", "setting": "β2-adrenoceptor [3]; comparison of ED50, rats i.v.", "value": 4, "unit": "times"}, {"measurement": "β2-adrenoceptor blocking activity, times as high as pindolol", "setting": "β2-adrenoceptor [3]; comparison of ED50, rats i.v.", "value": 2, "unit": "times"}, {"measurement": "β2-adrenoceptor blocking activity, times as high as propranolol", "setting": "β2-adrenoceptor [3]; comparison of ED50, rats i.v.", "value": 11, "unit": "times"}, {"measurement": "dosage from which isadrin depressor effect suppressed", "setting": "β2-adrenoceptor [3]; i.v.", "value": 0.0025, "unit": "mg/kg"}, {"measurement": "ED50", "setting": "β2-adrenoceptor [3]; rat, iv, read-out: Dosage inhibiting isadrin's depressor effect by 50%, ED50", "value": "8 ± 0.7", "unit": "µg/kg"}, {"measurement": "effect on positive inotropism of isadrin", "setting": "β-adrenoceptor", "value": "completely arrested"}, {"measurement": "effect on positive inotropism of strophanthin, calcium chloride and theophylline", "setting": "β-adrenoceptor", "value": "did not inhibit but even somewhat enhanced"}, {"measurement": "β2-adrenoceptor blocking activity, times as high as labetalol", "setting": "β2-adrenoceptor [4]", "value": 114, "unit": "times"}, {"measurement": "β2-adrenoceptor blocking activity, times as high as oxprenolol", "setting": "β2-adrenoceptor [4]", "value": 43, "unit": "times"}, {"measurement": "β2-adrenoceptor blocking activity, times as high as propranolol", "setting": "β2-adrenoceptor [4]", "value": 2, "unit": "times"}, {"measurement": "biochemical blood values", "setting": "experimental animals; 5 and 30 mg/kg, 6 months", "value": "no effect on biochemical blood values"}, {"measurement": "clinical blood values", "setting": "experimental animals; 5 and 30 mg/kg, 6 months", "value": "did not change the clinical blood values"}, {"measurement": "influence on behavior, appearance, body functions", "setting": "experimental animals; 5 and 30 mg/kg, 6 months", "value": "not exert an essential influence"}, {"measurement": "locally irritant effect", "setting": "experimental animals; 5 and 30 mg/kg, 6 months", "value": "did not exert any locally irritant effect"}, {"measurement": "pathologic alterations in structure of internals", "setting": "experimental animals; 5 and 30 mg/kg, 6 months", "value": "did not lead to pathologic alterations"}, {"measurement": "chronic toxicity tolerance", "setting": "experimental animals; intragastric", "value": "excellent tolerance"}]}
